Reference: patent US9708318B2, “Bicyclic heterocycles as FGFR4 inhibitors” (Incyte Corporation, priority 2015, dated 2017)
Where two headings read alike, the source gives them in different places.

Legend:
FGFR2 = FGFR2 (Homo sapiens (Human), UniProt P21802); assay: FGFR Enzymatic Assay (FRET peptide phosphorylation), FGFR2; format: biochemical
Procedure: (§1) The inhibitor potency of the exemplified compounds was measured in an enzyme assay that measures peptide phosphorylation using FRET measurements to detect product formation. Inhibitors were serially diluted in DMSO and a volume of 0.5 μL was transferred to the wells of a 384-well plate.
(§2) The enzymes were purchased from Millipore or Invitrogen.
(§3) GraphPad prism3 was used to analyze the data.

FGFR4 = FGFR4 (Homo sapiens (Human), UniProt P22455); assay: FGFR Enzymatic Assay (FRET peptide phosphorylation), FGFR4; format: biochemical
Procedure: as §1, §2, §3

FGFR3 enzyme = FGFR3 enzyme (Homo sapiens (Human), UniProt P22607); assay: FGFR Enzymatic Assay (FRET peptide phosphorylation), FGFR3; format: biochemical; conditions: for FGFR1/FGFR3 IC50 ratio / FGFR4/FGFR3 IC50 ratio: FGFR3 selectivity; for IC50: read-out: FGFR3 IC50
Procedure: as §1, §3

FGFR1 = FGFR1 (Homo sapiens (Human), UniProt P11362); assay: FGFR Enzymatic Assay (FRET peptide phosphorylation), FGFR1
[1] = FGFR1 IC50 (nM), pre-incubated for 4 hours
[2] = pre-incubated for 5 to 10 minutes
[3] = FGFR1 IC50 (nM), pre-incubated for 5 to 10 minutes
[4] = read-out: FGFR1 IC50, pre-incubated for 4 hours

Sequence of FGFR2 (P21802 22-821): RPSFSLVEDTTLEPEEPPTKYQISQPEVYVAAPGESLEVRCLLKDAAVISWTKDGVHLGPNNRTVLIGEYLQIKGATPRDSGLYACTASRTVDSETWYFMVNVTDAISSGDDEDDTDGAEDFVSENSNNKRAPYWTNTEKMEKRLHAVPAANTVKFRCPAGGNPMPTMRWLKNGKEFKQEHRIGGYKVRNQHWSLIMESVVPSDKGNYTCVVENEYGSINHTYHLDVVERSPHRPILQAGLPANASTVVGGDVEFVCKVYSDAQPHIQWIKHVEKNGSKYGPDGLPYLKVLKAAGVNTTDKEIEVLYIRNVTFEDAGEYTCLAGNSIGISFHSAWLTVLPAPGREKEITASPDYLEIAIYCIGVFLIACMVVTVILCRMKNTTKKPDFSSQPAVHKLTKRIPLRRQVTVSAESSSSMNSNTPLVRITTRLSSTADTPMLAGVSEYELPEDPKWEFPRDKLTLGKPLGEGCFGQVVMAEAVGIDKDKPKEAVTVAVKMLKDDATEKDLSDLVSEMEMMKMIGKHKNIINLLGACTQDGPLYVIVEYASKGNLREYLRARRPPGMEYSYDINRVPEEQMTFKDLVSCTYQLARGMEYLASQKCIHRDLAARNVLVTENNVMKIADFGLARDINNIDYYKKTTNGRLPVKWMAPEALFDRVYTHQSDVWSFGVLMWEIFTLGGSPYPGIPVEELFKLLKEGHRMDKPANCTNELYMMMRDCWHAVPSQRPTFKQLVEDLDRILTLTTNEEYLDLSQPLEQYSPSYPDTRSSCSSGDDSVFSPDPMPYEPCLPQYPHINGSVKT
Sequence of FGFR1 (P11362 22-822): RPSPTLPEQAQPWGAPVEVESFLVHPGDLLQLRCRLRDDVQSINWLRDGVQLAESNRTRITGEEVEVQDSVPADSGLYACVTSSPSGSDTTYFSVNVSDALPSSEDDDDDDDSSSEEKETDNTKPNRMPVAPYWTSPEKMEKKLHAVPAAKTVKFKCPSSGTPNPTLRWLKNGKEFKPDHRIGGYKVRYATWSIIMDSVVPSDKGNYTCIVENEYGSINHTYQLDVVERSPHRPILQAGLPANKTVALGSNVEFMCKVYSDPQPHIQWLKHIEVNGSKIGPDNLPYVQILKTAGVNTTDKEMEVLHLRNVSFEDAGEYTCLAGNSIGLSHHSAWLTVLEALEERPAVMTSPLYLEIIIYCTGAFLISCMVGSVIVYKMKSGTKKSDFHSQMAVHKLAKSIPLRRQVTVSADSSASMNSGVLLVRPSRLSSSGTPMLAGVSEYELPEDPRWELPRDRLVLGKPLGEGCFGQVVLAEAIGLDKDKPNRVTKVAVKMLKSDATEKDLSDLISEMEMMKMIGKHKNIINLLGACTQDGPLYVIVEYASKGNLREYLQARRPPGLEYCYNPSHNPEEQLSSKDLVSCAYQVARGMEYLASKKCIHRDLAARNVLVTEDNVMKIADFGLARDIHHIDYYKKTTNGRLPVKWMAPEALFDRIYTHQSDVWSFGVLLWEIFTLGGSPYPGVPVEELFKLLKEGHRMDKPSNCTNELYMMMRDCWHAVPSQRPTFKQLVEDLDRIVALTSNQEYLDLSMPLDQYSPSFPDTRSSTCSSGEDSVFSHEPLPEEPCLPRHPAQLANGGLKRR
Sequence of FGFR3 enzyme (P22607 23-806): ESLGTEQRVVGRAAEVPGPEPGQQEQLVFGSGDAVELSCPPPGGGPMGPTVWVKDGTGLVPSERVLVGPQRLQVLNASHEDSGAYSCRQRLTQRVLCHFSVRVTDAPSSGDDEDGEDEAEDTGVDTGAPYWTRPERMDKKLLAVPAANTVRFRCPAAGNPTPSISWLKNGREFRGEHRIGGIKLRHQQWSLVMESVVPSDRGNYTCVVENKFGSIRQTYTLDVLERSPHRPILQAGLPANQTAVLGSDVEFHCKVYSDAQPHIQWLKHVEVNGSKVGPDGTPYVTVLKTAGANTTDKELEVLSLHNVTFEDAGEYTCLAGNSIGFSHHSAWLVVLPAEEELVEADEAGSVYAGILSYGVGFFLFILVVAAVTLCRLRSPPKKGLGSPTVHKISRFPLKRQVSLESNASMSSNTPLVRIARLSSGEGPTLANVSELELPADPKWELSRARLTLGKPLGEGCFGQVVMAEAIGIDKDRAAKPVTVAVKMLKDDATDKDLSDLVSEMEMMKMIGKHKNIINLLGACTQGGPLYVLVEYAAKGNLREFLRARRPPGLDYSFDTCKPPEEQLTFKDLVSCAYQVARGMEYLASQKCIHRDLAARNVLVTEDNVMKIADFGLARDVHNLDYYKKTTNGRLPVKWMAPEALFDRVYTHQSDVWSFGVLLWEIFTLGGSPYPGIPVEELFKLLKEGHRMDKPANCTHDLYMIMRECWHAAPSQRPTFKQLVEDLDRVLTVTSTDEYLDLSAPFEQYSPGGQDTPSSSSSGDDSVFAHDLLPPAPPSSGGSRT
Sequence of FGFR4 (P22455 22-802): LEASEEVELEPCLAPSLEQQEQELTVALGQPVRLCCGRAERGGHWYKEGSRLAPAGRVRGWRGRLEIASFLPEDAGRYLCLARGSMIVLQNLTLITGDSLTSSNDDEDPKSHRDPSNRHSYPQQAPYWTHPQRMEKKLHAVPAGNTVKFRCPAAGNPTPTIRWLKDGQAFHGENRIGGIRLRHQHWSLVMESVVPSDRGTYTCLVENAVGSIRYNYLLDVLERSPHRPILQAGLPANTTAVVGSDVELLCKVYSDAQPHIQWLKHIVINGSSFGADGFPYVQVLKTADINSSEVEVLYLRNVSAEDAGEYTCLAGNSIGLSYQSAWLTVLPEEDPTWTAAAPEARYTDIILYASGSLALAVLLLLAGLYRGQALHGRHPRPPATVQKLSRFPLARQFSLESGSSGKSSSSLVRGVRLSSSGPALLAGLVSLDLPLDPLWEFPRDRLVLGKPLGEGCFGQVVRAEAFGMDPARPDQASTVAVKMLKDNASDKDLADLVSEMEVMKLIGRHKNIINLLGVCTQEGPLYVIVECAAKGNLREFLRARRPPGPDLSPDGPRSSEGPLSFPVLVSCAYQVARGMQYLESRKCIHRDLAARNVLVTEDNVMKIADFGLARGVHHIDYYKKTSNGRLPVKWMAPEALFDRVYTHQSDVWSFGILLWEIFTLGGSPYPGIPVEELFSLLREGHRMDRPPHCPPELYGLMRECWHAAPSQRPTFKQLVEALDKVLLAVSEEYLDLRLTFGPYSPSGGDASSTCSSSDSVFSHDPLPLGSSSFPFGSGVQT

Row | Compound | IC50 (FGFR2; pre-incubated for 4 hours) | IC50 (FGFR4; pre-incubated for 4 hours) | FGFR1/FGFR3 IC50 ratio (FGFR3 enzyme; pre-incubated for 4 hours) | FGFR4/FGFR3 IC50 ratio (FGFR3 enzyme; pre-incubated for 4 hours) | IC50 (FGFR3 enzyme; pre-incubated for 4 hours) | IC50 (FGFR1; [1]) | IC50 (FGFR2; [2]) | IC50 (FGFR4; [2]) | IC50 (FGFR3 enzyme; [2]) | IC50 (FGFR1; [3]) | IC50 (FGFR1; [4])
1 | COc1cc(OC)c(F)c(N2Cc3cnc(-c4cn(C5CCN(C)C5)nc4C)cc3C3(CC3)C2=O)c1F (centres unmarked) [Example 163, 2′-(2,6-difluoro-3,5-dimethoxyphenyl)-6′-(3-methyl-1-(1-methylpyrrolidin-3-yl)-1H-pyrazol-4-yl)-1′H-spiro[cyclopropane-1,4′-[2,7]naphthyridin]-3′(2′H)-one] | < 10 nM | 30 to 200 nM | >3 | >3 | < 10 nM | 30 to 200 nM | – | – | – | – | –
2 | COc1cc(OC)c(F)c(N2Cc3cnc(-c4cn(C)nc4C)cc3N(c3cnccn3)C2=O)c1F [Example 70, 3-(2,6-difluoro-3,5-dimethoxyphenyl)-7-(1,3-dimethyl-1H-pyrazol-4-yl)-1-(pyrazin-2-yl)-3,4-dihydropyrido[4,3-d]pyrimidin-2(1H)-one] | 10 to 30 nM | 30 to 200 nM | >5 | >5 | 10 to 30 nM | 30 to 200 nM | – | – | – | – | –
3 | CCOc1cc(CN2C(=O)N(c3c(F)c(OC)cc(OC)c3F)Cc3cnc(-c4cn(C)nc4C)cc32)ccn1 [Example 116, 3-(2,6-difluoro-3,5-dimethoxyphenyl)-7-(1,3-dimethyl-1H-pyrazol-4-yl)-1-((2-ethoxypyridin-4-yl)methyl)-3,4-dihydropyrido[4,3-d]pyrimidin-2(1H)-one] | – | – | – | – | – | – | < 10 nM | 10 to 30 nM | < 10 nM | 10 to 30 nM | –
4 | COc1cc(OC)c(F)c(N2Cc3cnc(-c4cnn(CC5CCCS(=O)(=O)N5)c4)cc3C3(CC3)C2=O)c1F (centres unmarked) [Example 162, 2′-(2,6-difluoro-3,5-dimethoxyphenyl)-6′-{1-[(1,1-dioxido-1,2-thiazinan-3-yl)methyl]-1H-pyrazol-4-yl}-1′H-spiro[cyclopropane-1,4′-[2,7]naphthyridin]-3′(2′H)-one] | < 10 nM | < 10 nM | >5 | >1 | < 10 nM | 10 to 30 nM | – | – | – | – | –
5 | COc1cc(OC)c(F)c(N2Cc3cnc(-c4csc(N(C)C)n4)cc3C3(CC3)C2=O)c1F [Example 160, 2′-(2,6-difluoro-3,5-dimethoxyphenyl)-6′-(2-(dimethylamino)thiazol-4-yl)-1′H-spiro[cyclopropane-1,4′-[2,7]naphthyridin]-3′(2′H)-one] | < 10 nM | 10 to 30 nM | >5 | >5 | < 10 nM | 10 to 30 nM | – | – | – | – | –
6 | COc1cc(OC)c(F)c(N2Cc3cnc(-c4cn(CCC#N)nc4C)cc3C3(CC3)C2=O)c1F [Example 156, 3-(4-(2′-(2,6-difluoro-3,5-dimethoxyphenyl)-3′-oxo-2′,3′-dihydro-1′H-spiro[cyclopropane-1,4,-[2,7]naphthyridine]-6′-yl)-3-methyl-1H-pyrazol-1-yl)propanenitrile] | 10 to 30 nM | 10 to 30 nM | >5 | >1 | < 10 nM | 30 to 200 nM | – | – | – | – | –
7 | COc1cc(OC)c(F)c(N2Cc3cnc(-c4cn(C)nc4C)cc3N(c3ccc4c(c3)CC(=O)N4)C2=O)c1F [Example 119, 3-(2,6-difluoro-3,5-dimethoxyphenyl)-7-(1,3-dimethyl-1H-pyrazol-4-yl)-1-(2-oxoindolin-5-yl)-3,4-dihydropyrido[4,3-d]pyrimidin-2(1H)-one] | – | – | – | – | – | – | < 10 nM | 10 to 30 nM | < 10 nM | 10 to 30 nM | –
8 | COc1cc(OC)c(F)c(N2Cc3cnc(-c4cn(C)nc4C)cc3N(Cc3cccnn3)C2=O)c1F [Example 88, 3-(2,6-difluoro-3,5-dimethoxyphenyl)-7-(1,3-dimethyl-1H-pyrazol-4-yl)-1-(pyridazin-3-ylmethyl)-3,4-dihydropyrido[4,3-d]pyrimidin-2(1H)-one] | < 10 nM | < 10 nM | >5 | >10 | < 10 nM | – | – | – | – | – | < 10 nM
9 | COc1cc(OC)c(F)c(N2Cc3cnc(-c4cn(C)nc4C)cc3N(c3cnc(C)cn3)C2=O)c1F [Example 107, 3-(2,6-difluoro-3,5-dimethoxyphenyl)-7-(1,3-dimethyl-1H-pyrazol-4-yl)-1-(5-methylpyrazin-2-yl)-3,4-dihydropyrido[4,3-d]pyrimidin-2(1H)-one] | 10 to 30 nM | 30 to 200 nM | >3 | >10 | 10 to 30 nM | 30 to 200 nM | – | – | – | – | –
10 | CCN1C(=O)N(c2c(F)c(OC)cc(OC)c2F)Cc2cnc(-c3cccnc3)cc21 [Example 23, 3-(2,6-difluoro-3,5-dimethoxyphenyl)-1-ethyl-7-(pyridin-3-yl)-3,4-dihydropyrido[4,3-d]pyrimidin-2(1H)-one] | < 10 nM | < 10 nM | >5 | – | < 10 nM | 30 to 200 nM | – | – | – | – | –
11 | CNC(=O)c1ccc(CN2C(=O)N(c3c(F)c(OC)cc(OC)c3F)Cc3cnc(-c4cn(C)nc4C)cc32)cc1 [Example 62, 4-((3-(2,6-difluoro-3,5-dimethoxyphenyl)-7-(1,3-dimethyl-1H-pyrazol-4-yl)-2-oxo-3,4-dihydropyrido[4,3-d]pyrimidin-1(2H)-yl)methyl)-N-methylbenzamide] | 10 to 30 nM | 30 to 200 nM | >10 | >5 | < 10 nM | 30 to 200 nM | – | – | – | – | –
12 | COc1cc(OC)c(F)c(N2Cc3cnc(-c4ccc(C5(C#N)CCC5)nc4)cc3N(C3CCC3)C2=O)c1F [Example 136, 1-(5-(1-cyclobutyl-3-(2,6-difluoro-3,5-dimethoxyphenyl)-2-oxo-1,2,3,4-tetrahydropyrido[4,3-d]pyrimidin-7-yl)pyridin-2-yl)cyclobutanecarbonitrile] | – | – | – | – | – | – | 10 to 30 nM | 30 to 200 nM | 10 to 30 nM | 30 to 200 nM | –
13 | COc1cc(OC)c(F)c(N2Cc3cnc(-c4cnn(C5(CC#N)CN(C(C)=O)C5)c4)cc3C3(CC3)C2=O)c1F [Example 56, 2-(1-acetyl-3-(4-(2′-(2,6-difluoro-3,5-dimethoxyphenyl)-3′-oxo-2′,3′-dihydro-1′H-spiro[cyclopropane-1,4′-[2,7]naphthyridine]-6′-yl)-1H-pyrazol-1-yl)azetidin-3-yl)acetonitrile] | 30 to 200 nM | 30 to 200 nM | >5 | >1 | 30 to 200 nM | – | – | – | – | – | > 200 nM
14 | COc1cc(OC)c(F)c(N2Cc3cnc(-c4cn(C5CCS(=O)(=O)C5)nc4C)cc3C3(CC3)C2=O)c1F (centres unmarked) [Example 54, 2′-(2,6-difluoro-3,5-dimethoxyphenyl)-6′-[1-(1,1-dioxidotetrahydro-3-thienyl)-3-methyl-1H-pyrazol-4-yl]-1′,2′-dihydro-3′H-spiro[cyclopropane-1,4′-[2,7]naphthyridin]-3′-one] | < 10 nM | 10 to 30 nM | >5 | >1 | < 10 nM | 30 to 200 nM | – | – | – | – | –
15 | COc1cc(OC)c(F)c(N2Cc3cnc(-c4cn(C5CCN(CC#N)C5)nc4C)cc3C3(CC3)C2=O)c1F (centres unmarked) [Example 154, 2-(3-(4-(2′-(2,6-difluoro-3,5-dimethoxyphenyl)-3′-oxo-2′,3′-dihydro-1′H-spiro[cyclopropane-1,4′-[2,7]naphthyridine]-6′-yl)-3-methyl-1H-pyrazol-1-yl)pyrrolidin-1-yl)acetonitrile] | 10 to 30 nM | 30 to 200 nM | >5 | >3 | 10 to 30 nM | 30 to 200 nM | – | – | – | – | –
16 | COc1cc(OC)c(F)c(N2Cc3cnc(-c4cn(CC#N)nc4C)cc3C3(CC3)C2=O)c1F [Example 153, 2-(4-(2′-(2,6-difluoro-3,5-dimethoxyphenyl)-3′-oxo-2′,3′-dihydro-1′H-spiro[cyclopropane-1,4′-[2,7]naphthyridine]-6′-yl)-3-methyl-1H-pyrazol-1-yl)acetonitrile] | 10 to 30 nM | 10 to 30 nM | >5 | >3 | < 10 nM | 30 to 200 nM | – | – | – | – | –
17 | COc1cc(OC)c(F)c(N2Cc3cnc(-c4cn(C)nc4C)cc3N(c3ccnnc3)C2=O)c1F [Example 57, 3-(2,6-difluoro-3,5-dimethoxyphenyl)-7-(1,3-dimethyl-1H-pyrazol-4-yl)-1-(pyridazin-4-yl)-3,4-dihydropyrido[4,3-d]pyrimidin-2(1H)-one] | 30 to 200 nM | 30 to 200 nM | >10 | >10 | 10 to 30 nM | – | 30 to 200 nM | > 200 nM | 10 to 30 nM | 30 to 200 nM | > 200 nM
18 | COc1cc(OC)c(F)c(N2Cc3cnc(-c4cn(C)nc4C)cc3N(c3ccc4ccncc4c3)C2=O)c1F [Example 63, 3-(2,6-difluoro-3,5-dimethoxyphenyl)-7-(1,3-dimethyl-1H-pyrazol-4-yl)-1-(isoquinolin-7-yl)-3,4-dihydropyrido[4,3-d]pyrimidin-2(1H)-one] | 10 to 30 nM | 30 to 200 nM | >10 | >5 | < 10 nM | 30 to 200 nM | – | – | – | – | –
19 | COc1cc(OC)c(F)c(N2Cc3cnc(-c4cn(C)nc4C)cc3C3(CC3)C2=O)c1F [Example 21, 2′-(2,6-difluoro-3,5-dimethoxyphenyl)-6′-(1,3-dimethyl-1H-pyrazol-4-yl)-1′,2′-dihydro-3′H-spiro[cyclopropane-1,4′-[2,7]naphthyridin]-3′-one] | < 10 nM | 10 to 30 nM | >5 | – | < 10 nM | 10 to 30 nM | – | – | – | – | –
